Results: doi:10.1101/2022.12.28.522074v1, “Redesigning methionyl-tRNA synthetase for β-methionine activity with adaptive landscape flattening and experiments” (biorxiv, 2022)
Where a chain is given by its changes, count along the chain named. pKd: −log10 of the molar value. Like-named read-outs stand apart in the source and are kept apart here.

How the values were obtained:
Assay in all cases: intrinsic fluorescence titration at equilibrium
Format in all cases: binding
[1] = molecular target: T1, MetRS M547 (His-tagged monomeric E. coli MetRS) (Escherichia coli, UniProt P00959, I298C/L14C)
T1 construct: gene metG; M547: C-terminally truncated monomeric fragment (about 547 residues), His-tagged, pET15blpa, expressed in E. coli BLR(DE3)
T1 sequence (P00959 2-548 L14C/I298C): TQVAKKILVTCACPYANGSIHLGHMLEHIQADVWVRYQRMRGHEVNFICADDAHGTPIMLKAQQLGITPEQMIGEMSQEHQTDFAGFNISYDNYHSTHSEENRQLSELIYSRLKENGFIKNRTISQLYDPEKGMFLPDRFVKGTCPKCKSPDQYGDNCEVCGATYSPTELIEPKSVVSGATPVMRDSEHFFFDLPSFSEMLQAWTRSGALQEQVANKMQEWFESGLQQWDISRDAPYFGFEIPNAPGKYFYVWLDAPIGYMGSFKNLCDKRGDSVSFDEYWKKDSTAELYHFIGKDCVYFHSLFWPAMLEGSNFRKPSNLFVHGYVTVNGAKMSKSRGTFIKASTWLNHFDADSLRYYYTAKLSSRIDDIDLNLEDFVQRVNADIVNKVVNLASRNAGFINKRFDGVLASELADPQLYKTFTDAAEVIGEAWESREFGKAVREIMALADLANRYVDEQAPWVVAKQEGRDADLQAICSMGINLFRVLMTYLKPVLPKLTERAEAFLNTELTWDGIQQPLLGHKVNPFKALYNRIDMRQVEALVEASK
Text: (§1) intrinsic fluorescence titration at equilibrium on MetRS M547 (His-tagged monomeric E. coli MetRS)

[2] = molecular target: T2, MetRS M547 (His-tagged monomeric E. coli MetRS) (Escherichia coli, UniProt P00959, I298C)
T2 construct: gene metG; M547: C-terminally truncated monomeric fragment (about 547 residues), His-tagged, pET15blpa, expressed in E. coli BLR(DE3)
T2 sequence (P00959 2-548 I298C): T1 sequence (P00959 2-548 L14C/I298C) with C13L
Text: as §1

[3] = molecular target: T3, MetRS M547 (His-tagged monomeric E. coli MetRS) (Escherichia coli, UniProt P00959, I298C/L14M)
T3 construct: gene metG; M547: C-terminally truncated monomeric fragment (about 547 residues), His-tagged, pET15blpa, expressed in E. coli BLR(DE3)
T3 sequence (P00959 2-548 L14M/I298C): T1 sequence (P00959 2-548 L14C/I298C) with C13M
Text: as §1

[4] = molecular target: T4, MetRS M547 (His-tagged monomeric E. coli MetRS) (Escherichia coli, UniProt P00959)
T4 construct: gene metG; M547: C-terminally truncated monomeric fragment (about 547 residues), His-tagged, pET15blpa, expressed in E. coli BLR(DE3)
T4 sequence (P00959 2-548): T1 sequence (P00959 2-548 L14C/I298C) with C13L, C297I
Text: as §1

[5] = molecular target: T5, MetRS M547 (His-tagged monomeric E. coli MetRS) (Escherichia coli, UniProt P00959, I298C/L14S)
T5 construct: gene metG; M547: C-terminally truncated monomeric fragment (about 547 residues), His-tagged, pET15blpa, expressed in E. coli BLR(DE3)
T5 sequence (P00959 2-548 L14S/I298C): T1 sequence (P00959 2-548 L14C/I298C) with C13S
Text: as §1

| Compound | pKd ([1]; read-out: Kd(α-Met)) | pKd ([2]; read-out: Kd(α-Met)) | pKd ([3]; read-out: Kd(α-Met)) | pKd ([4]; read-out: Kd(α-Met)) | pKd ([5]; read-out: Kd(α-Met)) | pKd ([1]; read-out: Kd(β-Met)) | pKd ([2]; read-out: Kd(β-Met)) | pKd ([3]; read-out: Kd(β-Met)) | pKd ([4]; read-out: Kd(β-Met)) | pKd ([5]; read-out: Kd(β-Met)) |
| --- | --- | --- | --- | --- | --- | --- | --- | --- | --- | --- |
| CSCC[C@H](N)C(=O)O [α-Met] | 3.77 | 3.72 | 3.80 | 4.30 | 3.77 |  |  |  |  |  |
| CSCC[C@H](N)CC(=O)O [β-Met] |  |  |  |  |  | 3.05 | 3.05 | 3.05 | 2.92 | 3.00 |
